For assay [1], the target named is T1, human CaR (Homo sapiens, UniProt P41180).
T1 sequence (P41180 20-1078): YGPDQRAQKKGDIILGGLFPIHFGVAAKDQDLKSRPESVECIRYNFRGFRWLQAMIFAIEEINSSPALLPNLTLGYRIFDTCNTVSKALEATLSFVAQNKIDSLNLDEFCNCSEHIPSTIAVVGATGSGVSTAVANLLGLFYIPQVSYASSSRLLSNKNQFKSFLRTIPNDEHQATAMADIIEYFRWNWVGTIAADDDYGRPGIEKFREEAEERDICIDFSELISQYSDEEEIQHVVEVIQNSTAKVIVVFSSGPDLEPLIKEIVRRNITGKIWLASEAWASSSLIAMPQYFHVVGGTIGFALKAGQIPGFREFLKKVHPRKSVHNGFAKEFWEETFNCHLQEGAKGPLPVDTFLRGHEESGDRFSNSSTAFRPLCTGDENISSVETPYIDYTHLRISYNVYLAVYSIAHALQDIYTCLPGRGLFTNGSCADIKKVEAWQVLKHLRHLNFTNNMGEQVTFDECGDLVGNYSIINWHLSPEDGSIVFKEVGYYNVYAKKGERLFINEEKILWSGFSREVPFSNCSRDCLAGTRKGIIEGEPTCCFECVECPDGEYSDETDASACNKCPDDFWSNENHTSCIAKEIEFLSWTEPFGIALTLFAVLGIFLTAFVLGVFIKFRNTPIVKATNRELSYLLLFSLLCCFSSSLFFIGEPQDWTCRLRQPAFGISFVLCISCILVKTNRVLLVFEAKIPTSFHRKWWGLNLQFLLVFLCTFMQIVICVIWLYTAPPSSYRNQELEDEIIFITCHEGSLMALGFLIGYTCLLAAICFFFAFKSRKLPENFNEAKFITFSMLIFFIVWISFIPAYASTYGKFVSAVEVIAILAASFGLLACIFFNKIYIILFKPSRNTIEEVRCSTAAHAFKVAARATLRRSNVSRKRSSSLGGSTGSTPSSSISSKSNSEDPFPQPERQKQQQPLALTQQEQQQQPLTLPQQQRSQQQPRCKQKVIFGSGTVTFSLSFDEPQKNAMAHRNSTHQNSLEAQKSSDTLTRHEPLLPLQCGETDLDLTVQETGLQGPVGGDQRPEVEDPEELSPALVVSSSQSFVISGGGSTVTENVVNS
Put plainly: Cytosolic calcium (Cai) response of HEK 293 cells stably transfected with the human CaR. The settings on record: for effect on the EC50 of activation by Cao compared with 40 mM NaCl: addition of 40 mM salt. Set-up: expressed in transfected cells; host or cells: HEK 293. The class given is cell-based. The procedure:
Measurement of Cai using cell population system: Coverslips with near-confluent HEK cells were loaded with fura-2/AM and placed diagonally into thermostated cuvettes equipped with a magnetic stirrer. The bath solution was stirred at 37° C., and CaR agonists were added to the desired final concentration. Excitation monochrometers was centered at 340 nm and 380 nm with emission light collected at 90° using a long-pass emission filter. The 340/380 excitation ratio of emitted light was used to calculate Cai. Both in vivo and in vitro calibrations were used to estimate Cai.

A further assay has as its target T2, chicken CaR (Gallus gallus, UniProt A0A8V0ZLX2).
T2 construct: ORF 3177 nt, nt 87-3263), T7 cRNA injected into Xenopus laevis oocytes
T2 sequence (A0A8V0ZLX2 20-1059): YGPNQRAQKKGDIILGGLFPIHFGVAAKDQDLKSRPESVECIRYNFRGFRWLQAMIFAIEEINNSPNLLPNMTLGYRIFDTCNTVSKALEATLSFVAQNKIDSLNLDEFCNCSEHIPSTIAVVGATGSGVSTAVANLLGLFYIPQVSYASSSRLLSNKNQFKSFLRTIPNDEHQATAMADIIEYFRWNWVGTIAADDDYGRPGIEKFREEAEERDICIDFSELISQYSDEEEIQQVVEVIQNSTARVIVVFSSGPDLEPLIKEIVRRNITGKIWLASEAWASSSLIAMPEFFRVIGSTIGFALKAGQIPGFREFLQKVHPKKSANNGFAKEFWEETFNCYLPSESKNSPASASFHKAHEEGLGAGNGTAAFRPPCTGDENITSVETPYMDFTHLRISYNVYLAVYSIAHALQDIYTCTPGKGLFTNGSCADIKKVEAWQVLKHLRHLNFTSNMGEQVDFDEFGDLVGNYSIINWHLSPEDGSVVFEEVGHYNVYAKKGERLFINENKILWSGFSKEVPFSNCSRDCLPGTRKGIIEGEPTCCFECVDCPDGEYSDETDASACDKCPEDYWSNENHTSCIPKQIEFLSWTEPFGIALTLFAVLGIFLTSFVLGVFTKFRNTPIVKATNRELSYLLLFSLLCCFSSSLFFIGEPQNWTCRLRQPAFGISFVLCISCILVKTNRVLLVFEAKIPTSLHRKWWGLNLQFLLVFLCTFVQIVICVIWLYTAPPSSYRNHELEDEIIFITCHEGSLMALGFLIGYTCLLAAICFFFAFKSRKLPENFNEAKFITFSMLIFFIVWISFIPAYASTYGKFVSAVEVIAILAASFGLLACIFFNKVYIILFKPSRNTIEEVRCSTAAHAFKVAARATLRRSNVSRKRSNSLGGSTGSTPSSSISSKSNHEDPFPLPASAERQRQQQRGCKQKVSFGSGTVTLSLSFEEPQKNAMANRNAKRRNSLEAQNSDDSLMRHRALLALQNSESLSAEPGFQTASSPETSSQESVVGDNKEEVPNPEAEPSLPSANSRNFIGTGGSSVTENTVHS
Description: Expression of chicken CaR in Xenopus laevis oocytes, agonist-dependent inward Cl- currents. Format: cell-based. An excerpt:
Expression of the chicken CaR in Xenopus laevis oocytes. The assay is based on injection of synthetic RNA (cRNA) for the chicken CaR into Xenopus oocytes and measurement of agonist-dependent inward currents due to CaR-mediated stimulation of Ca^2+ -activated Cl^- channels (Brown, et al., Nature 366: 575-580 (1993)). In preparing, handling and injecting the oocytes, the techniques of Hediger et al. were followed (Proc. Nat'l Acad. Sci. USA 84:2634-2637 (1987)). cRNA was transcribed from the C1D one as previously described (Brown et al. Nature 336:575-580 (1993)). In vitro transcription of cRNA was done with T7 RNA polymerase in the presence of a cap analog (m^7 -GpppG, Pharmacia Biotech, Upsala, Sweden). Defolliculated oocytes were injected with 50 nl of a 0.25 μg/μl aqueous solution of CaR cRNA or with the same volume of H2 O as a negative control. The injected oocytes were then incubated in ND96 "standard" solution containing 92 mM Na, 5 mM K, 0.5 mM CaCl2 0.5 mM MgCl and 5 mM Hepes, pH 7.5, for 3-4 days before electrophysiological study. Cl^- currents were elicited by treatment of the oocytes with increasing concentrations of Ca^2+0, Mg^2+0 or Gd^3+0 and were measured using two electrode voltage clamp at a holding potential of […], as described in detail previously (Brown et al. Nature 336:575-580 (1993); Riccardi, et al. Proc. Nat'l Acad. Sci. USA 92:131-135 (1995)).

The target of assay [2] is T1, human CaR. The settings on record: addition of NaCl.
Description: Measurement of ^3 H-inositol phosphates: Cells transfected with DNA encoding human CaR were labeled with [^3 H]inositol (10 uCi/10^6 cells) overnight in medium 199 (with 10 ul/ml penicillin-streptomycin, 10 mM Hepes, pH 7.5, and 15% bovine serum), washed with solution (10 mM LiCl, 0.5 mM MgSO4, 0.5 mM CaCl2, and 2 mg/ml BSA in Eagle's MEM with Earle's salts), and then incubated with polyvalent cations for 30 minutes. Reactions were terminated with a final concentration of 10% TCA. After sedimentation of precipitated debris and removal of TCA by ether extraction, inositol phosphates in the aqueous phase were separated on Dowex anion exchange columns. The radioactive inositol monophosphate (InsP), bisphosphate (InsP2), trisphosphate (InsP3) and tetraphosphate (InsP4) were eluted stepwise with 0.2 M, 0.4 M, 0.8 M and 1.2 M formate containing 0.1 M formic acid, respectively, and quantitated using a liquid scintillation counter.
[3] abbreviates: oocytes injected with chicken CaR cRNA, Cl- currents.

SMILES strings stand for the structures.

As for `C[N+](C)(C)CCO.[Cl-]` [choline chloride], the “effect on the EC50 of activation by Cao compared with 40 mM NaCl” value on human CaR [1] is on record as “same effect”.

Regarding `[Mg+2]` [Mg^2+o], the effective concentration range entry on chicken CaR (setting [3]) is on record as “millimolar range”.

In general, EC50 refers to the concentration giving half of the maximal effect. Turning to `[Ca+2]` [Ca^2+o], the effective concentration range entry on chicken CaR (setting [3]) is recorded as “millimolar range”. In addition, the “threshold for cell activation” value on human CaR [1] (no alteration in NaCl) is listed as “about 1.5 mM”. The EC50 on human CaR [1] (no alteration in NaCl, read-out: EC50 for activation of the CaR) was ~3.5 mM. The “shift in the EC50 per 10 mM change in ionic strength” value at human CaR [1] (per 10 mM change in ionic strength) was “approximately 0.2 mM”.

`[Cl-].[Na+]` [NaCl, sodium chloride]: the “effect on Ca0-stimulated inositol phosphate accumulation” value on human CaR [2] is listed as “attenuated”. Moreover, the “effect on Cai response to 2.5 mM Cao” value at human CaR [1] (NaCl elevated by 20 to 60 mM) is listed as “attenuated”. In addition, the “effect on threshold and EC50 of Cao activation” value on human CaR [1] (addition of NaCl in 20 mM increments) is “shift to the right”.

For the molecule `[Gd+3]` [Gd^3+o], the “magnitude of inward current responses relative to Ca2+-evoked responses” value on chicken CaR (FIG. 5) is “almost an order of magnitude greater”. The half-maximal activation entry at chicken CaR (setting [3]) was “micromolar range”.

With `[Cl-].[K+]` [potassium chloride], the “effect on the EC50 of activation by Cao compared with 40 mM NaCl” value at human CaR [1] is recorded as “same effect”.

Source of the values: US6210964A, “Avian extracellular calcium-sensing receptor” (The Brigham and Women's Hospital, Inc., priority 1998, dated 2001).
